The results in this text go back to patent publication US12371675B2, “Process and microorganism for synthesis of adipic acid from carboxylic acids” (THE GOVERNING COUNCIL OF THE UNIVERSITY OF TORONTO, priority 2015, dated 2025).

Data set [1] addresses T1, Clostridium acetobutylicum DSM 1731 2-enoate reductase EREDCA, SEQ ID NO: 2 (Clostridium acetobutylicum, UniProt Q97DV0).
T1 sequence (Q97DV0 1-664): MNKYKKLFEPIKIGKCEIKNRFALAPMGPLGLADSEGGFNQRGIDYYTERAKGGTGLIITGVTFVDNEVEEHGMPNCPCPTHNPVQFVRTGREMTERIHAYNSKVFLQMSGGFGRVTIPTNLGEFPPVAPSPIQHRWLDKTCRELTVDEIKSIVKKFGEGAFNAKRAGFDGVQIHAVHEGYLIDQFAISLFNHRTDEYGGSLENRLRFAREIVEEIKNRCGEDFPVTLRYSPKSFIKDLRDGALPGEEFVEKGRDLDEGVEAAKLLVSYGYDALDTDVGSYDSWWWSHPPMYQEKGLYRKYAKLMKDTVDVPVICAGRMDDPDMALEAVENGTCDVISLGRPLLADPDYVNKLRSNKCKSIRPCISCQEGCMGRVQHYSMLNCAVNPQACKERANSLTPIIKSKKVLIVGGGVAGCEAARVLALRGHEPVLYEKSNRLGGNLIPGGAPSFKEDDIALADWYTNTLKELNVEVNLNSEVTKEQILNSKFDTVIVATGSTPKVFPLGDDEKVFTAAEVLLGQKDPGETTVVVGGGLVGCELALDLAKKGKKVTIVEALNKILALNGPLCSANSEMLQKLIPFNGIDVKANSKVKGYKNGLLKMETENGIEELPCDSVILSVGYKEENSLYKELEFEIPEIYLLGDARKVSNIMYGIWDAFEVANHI
Description: Kinetics of purified EREDCA, NADH oxidation at 340 nm, anaerobic. The format is biochemical. The note with it: 4 to 28 mM. As to the method:
(§1) The C═C reducing activity of EREDs was examined. Enzyme activity of purified EREDs was measured spectrophotometrically in 96-well plates by following incubation for 3-5 min at 30° C. in the anaerobic chamber as described in M. Buhler, H. Simon, Hoppe-Seyler's Zeitschrift fur Physiologische Chemie 1982, 363, 609-625. Buffers and reagents were degassed and sparged with Ar. Reaction mixture contained potassium phosphate (100 mM and pH 7.0), NADH (0.5 mM), indicated substrates, and proteins (0.1-50 μg) in a final volume of 200 μL. Enzyme reactions were monitored by following the decrease in absorbance at 340 nm (ε340 nm=6,220/M·cm) due to oxidation of NADH to NAD+.
(§2) For in vitro biochemical characterization, enzyme activities of purified EREDs were measured with 2-hexenedioic acid, cis-cis-muconic acid, trans-trans muconic acid, trans-cinnamic acid, trans-2-methyl-2-butenoic acid, trans-2-butenoic acid, acrolein, 2-cyclohexen-1-one, and 3-methyl-2-cyclohexenone. […] [Feng, J. et al. Discovery and Characterization of BlsE, a Radical S-Adenosyl-L-methionine Decarboxylase Involved in the Blasticidin S Biosynthetic Pathway. PLoS ONE 8 (2013)].
(§3) To increase the dissolved substrate concentration, 2-hexenedioic acid was dissolved in a reaction mixture containing […] (final concentration) isopropanol, and kinetic constants of EREDBC and EREDCA were determined.

In data set [2] the target is Bacillus coagulans 36D1 2-enoate reductase EREDBC, SEQ ID NO: 1 (Heyndrickxia coagulans, UniProt A0AAN0T7I1). Description: Kinetics of purified EREDBC, NADH oxidation at 340 nm, anaerobic. The note with it: for saturation by substrate: anaerobic, aqueous buffer. The format is biochemical. How it is done:
as §1, §2
Kinetic studies of purified EREDBC were performed using 2-hexenedioic acid, 2-cyclohexen-1-one, 3-methyl-2-cyclohexenone, and trans-cinnamic acid as substrates (FIG. 10).
as §3

The target of data set [3] is Mycobacterium paratuberculosis carboxylate reductase MAP_1040c, SEQ ID NO: 38 (Mycobacterium avium, UniProt A0ACD7BNV2). Description: CAR kinetics, ATP/NADPH dependent carboxylic acid reduction.
Mycobacterium paratuberculosis carboxylate reductase MAP_1040c, SEQ ID NO: 38, sequence (A0ACD7BNV2 entry or part of it): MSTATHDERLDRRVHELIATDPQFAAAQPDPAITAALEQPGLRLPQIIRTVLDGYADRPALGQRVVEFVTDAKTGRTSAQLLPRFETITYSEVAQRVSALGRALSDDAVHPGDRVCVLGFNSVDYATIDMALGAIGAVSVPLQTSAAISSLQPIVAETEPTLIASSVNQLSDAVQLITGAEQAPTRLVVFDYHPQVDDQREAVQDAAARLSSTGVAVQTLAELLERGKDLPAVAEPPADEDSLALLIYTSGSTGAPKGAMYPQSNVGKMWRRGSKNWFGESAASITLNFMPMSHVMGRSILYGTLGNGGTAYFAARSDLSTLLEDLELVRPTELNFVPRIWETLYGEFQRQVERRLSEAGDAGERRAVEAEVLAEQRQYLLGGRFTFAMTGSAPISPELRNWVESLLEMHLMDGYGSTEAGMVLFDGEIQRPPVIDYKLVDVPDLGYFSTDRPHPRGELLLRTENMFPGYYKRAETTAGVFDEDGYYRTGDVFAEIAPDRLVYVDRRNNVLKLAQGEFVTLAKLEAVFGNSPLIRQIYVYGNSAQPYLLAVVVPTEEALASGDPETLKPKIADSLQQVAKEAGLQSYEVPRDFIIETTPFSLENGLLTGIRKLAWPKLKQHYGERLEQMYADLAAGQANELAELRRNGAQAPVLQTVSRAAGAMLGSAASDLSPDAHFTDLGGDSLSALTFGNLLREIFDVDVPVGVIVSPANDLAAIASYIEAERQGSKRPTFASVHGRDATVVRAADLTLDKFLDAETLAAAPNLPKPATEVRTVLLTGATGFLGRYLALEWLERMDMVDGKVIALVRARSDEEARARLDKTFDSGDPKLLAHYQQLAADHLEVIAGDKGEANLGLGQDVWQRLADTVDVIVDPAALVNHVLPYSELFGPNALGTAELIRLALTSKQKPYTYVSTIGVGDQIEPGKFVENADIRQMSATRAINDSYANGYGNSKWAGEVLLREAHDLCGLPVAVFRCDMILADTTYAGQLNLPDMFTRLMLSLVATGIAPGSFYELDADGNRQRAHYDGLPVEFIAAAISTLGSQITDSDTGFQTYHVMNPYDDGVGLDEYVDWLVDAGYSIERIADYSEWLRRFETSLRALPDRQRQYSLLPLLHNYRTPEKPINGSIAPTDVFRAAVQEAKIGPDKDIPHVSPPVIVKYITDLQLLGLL
Data set [4] concerns Rhodococcus jostii aldehyde reductase RHA1_ro05279, SEQ ID NO: 47. Put plainly: AR kinetics, aldehyde reduction followed by NAD(P)H oxidation. The format is biochemical. The source says:
28 aldehyde reductases from different bacteria were cloned and overexpressed in E. coli. Enzymes purified using affinity chromatography on Ni-NTA resin were screened for reductase activity with adipaldehyde and butyraldehyde in presence of both NADPH and NADH (Table 5). Butyraldehyde was used as a substrate substitute for 4-oxo-butanal, which is not commercially available. Reactions were followed spectrophotometrically, by cofactor oxidation at 340 nm.
(§4) Enzyme activity of purified ARs was measured spectrophotometrically in 96-well plates Reaction mixtures contained 100 mM HEPES buffer (pH 7.5), 0.4 mM NADH/NADPH, 10 mM adipaldehyde or butylaldehyde, and proteins (10 μg for adipaldehyde screen, 2 μg for butyraldehyde screen) in a final volume of 200 μL Reaction mixture for adipaldehyde screening contained 1.8% DMSO. Enzyme reactions were monitored by following the decrease in absorbance at 340 nm (ε340 nm=6,220/M·cm) due to oxidation of NAD(P)H to NAD(P)+.
ARs RHA1_ro05279, PA1146, SC00229, PP_3370 were characterised for saturation with adipaldehyde, PP_3370, PSPTO_2097, RHA1_ro05279, SC00229, TM_0111, PA1146 were characterised for butyraldehyde saturation (Table 10). […] For both substrates maximal kcat/Km with minimal Km values was shown by AR PP 3370 from Pseudomonas putida.

The target of data set [5] is T2, Mycobacterium smegmatis carboxylate reductase MSMEG_2956, SEQ ID NO: 70 (Mycolicibacterium smegmatis, UniProt A0QWI7).
T2 sequence (A0QWI7 1-1168): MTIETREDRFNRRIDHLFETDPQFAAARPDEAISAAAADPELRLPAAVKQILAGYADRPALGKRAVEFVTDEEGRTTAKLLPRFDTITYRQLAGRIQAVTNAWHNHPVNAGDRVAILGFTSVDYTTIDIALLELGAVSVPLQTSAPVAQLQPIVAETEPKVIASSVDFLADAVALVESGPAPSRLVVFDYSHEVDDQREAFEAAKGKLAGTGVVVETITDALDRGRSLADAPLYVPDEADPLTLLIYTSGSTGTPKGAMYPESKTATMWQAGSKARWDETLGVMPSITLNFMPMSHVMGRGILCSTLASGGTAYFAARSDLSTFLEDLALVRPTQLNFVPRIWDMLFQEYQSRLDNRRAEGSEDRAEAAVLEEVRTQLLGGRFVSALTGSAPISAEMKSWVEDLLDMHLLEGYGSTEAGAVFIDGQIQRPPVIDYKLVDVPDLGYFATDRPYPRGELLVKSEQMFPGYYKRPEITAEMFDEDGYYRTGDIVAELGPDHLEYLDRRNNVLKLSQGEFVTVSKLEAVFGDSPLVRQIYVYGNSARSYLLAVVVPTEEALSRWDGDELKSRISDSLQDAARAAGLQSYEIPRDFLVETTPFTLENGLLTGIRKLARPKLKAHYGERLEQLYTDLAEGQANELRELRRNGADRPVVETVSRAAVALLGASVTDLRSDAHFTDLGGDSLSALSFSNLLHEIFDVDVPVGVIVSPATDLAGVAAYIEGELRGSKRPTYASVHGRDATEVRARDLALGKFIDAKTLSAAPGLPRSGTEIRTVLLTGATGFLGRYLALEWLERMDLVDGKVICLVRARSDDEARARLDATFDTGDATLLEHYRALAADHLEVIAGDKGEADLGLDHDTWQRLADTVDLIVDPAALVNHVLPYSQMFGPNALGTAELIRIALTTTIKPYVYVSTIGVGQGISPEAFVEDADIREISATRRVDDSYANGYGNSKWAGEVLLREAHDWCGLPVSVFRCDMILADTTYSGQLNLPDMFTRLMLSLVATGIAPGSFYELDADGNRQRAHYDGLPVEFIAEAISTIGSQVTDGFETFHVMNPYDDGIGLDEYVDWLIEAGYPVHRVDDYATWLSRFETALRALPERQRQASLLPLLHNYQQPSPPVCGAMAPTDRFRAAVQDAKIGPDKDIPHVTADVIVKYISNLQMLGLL
Description: CAR kinetics, ATP/NADPH dependent carboxylic acid reduction.

The target of data set [6] is T3, Mycobacterium smegmatis carboxylate reductase MSMEG_5739, SEQ ID NO: 37 (Mycolicibacterium smegmatis, UniProt A0R484).
T3 sequence (A0R484 1-1173): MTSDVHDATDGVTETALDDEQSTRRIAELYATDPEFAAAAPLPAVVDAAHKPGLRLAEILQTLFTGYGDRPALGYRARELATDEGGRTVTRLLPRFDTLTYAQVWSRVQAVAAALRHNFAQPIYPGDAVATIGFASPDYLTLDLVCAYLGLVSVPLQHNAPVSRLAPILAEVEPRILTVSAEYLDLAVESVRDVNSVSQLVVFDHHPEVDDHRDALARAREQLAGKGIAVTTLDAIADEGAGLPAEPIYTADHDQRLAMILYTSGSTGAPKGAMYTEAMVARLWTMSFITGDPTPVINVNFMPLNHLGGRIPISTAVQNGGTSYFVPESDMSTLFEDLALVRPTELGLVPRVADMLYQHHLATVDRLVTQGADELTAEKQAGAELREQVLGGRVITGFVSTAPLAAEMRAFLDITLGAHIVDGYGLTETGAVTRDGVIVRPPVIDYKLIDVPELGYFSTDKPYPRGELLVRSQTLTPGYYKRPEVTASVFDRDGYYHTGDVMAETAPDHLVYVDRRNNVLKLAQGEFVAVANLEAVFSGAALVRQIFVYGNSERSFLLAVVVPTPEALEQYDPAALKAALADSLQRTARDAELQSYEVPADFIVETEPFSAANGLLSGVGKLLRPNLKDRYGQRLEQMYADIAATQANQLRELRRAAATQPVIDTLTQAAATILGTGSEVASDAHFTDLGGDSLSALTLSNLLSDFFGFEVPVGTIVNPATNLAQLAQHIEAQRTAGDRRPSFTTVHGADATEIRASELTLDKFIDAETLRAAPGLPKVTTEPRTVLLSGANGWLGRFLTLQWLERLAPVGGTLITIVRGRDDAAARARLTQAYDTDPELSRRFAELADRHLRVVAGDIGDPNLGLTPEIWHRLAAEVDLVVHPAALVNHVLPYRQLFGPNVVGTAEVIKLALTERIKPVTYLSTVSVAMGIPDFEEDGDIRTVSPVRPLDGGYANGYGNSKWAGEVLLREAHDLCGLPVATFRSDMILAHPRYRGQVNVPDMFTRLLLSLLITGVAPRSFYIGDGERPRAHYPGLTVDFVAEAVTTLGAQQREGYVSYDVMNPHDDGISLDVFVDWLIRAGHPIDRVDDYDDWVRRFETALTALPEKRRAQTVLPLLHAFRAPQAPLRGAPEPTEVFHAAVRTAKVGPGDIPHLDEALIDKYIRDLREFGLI
Described as above.

The nature of data set [7]: AR reductase activity, NAD(P)H oxidation at 340 nm. Format: biochemical. The note with it: 10 mM, ND = no activity was detected. How it is done: as §4
Data set [8] in a line: AT activity coupled with alanine and glutamate dehydrogenases. Format: biochemical. The note with it: 10 mM adipaldehyde, alanine and glutamate amino-donors; ND = no activity was detected.
[9] abbreviates: adipaldehyde, cofactor NADH, 1,8% DMSO.

Bacillus coagulans 36D1 2-enoate reductase EREDBC, SEQ ID NO: 1, sequence (A0AAN0T7I1 entry or part of it): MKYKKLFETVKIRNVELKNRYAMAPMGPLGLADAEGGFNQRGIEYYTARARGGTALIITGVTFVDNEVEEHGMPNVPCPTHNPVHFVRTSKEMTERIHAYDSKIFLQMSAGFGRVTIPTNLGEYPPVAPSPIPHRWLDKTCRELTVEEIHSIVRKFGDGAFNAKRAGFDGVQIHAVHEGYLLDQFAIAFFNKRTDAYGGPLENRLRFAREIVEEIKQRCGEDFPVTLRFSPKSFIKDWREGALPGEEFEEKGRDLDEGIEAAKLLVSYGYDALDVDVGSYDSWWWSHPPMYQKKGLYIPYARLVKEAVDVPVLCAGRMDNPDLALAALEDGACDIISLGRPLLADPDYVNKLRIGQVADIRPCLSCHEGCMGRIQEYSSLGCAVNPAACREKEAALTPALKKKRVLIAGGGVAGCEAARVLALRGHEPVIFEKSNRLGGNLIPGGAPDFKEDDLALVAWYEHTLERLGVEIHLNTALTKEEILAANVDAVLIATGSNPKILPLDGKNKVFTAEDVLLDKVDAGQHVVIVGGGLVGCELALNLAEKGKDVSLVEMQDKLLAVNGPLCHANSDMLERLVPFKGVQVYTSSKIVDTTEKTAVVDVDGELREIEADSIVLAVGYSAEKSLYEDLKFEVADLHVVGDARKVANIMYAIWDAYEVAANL

As for `O=C(O)C=CCCC(=O)O` (racemic) [2-hexenedioic acid, 2-Hexenedioic acid], the saturation by substrate result in data set [1] and in data set [2] was “no saturation” each time. Besides, the “fold higher catalytic efficiency (kcat/Km) of EREDBC compared to EREDCA” value in data set [2] (2-hexenedioic acid in 0.25 mM isopropanol, 2.5 to 35 mM) was 14.6 fold.

In the case of `O=C1C=CCCC1` [2-cyclohexen-1-one, 2-Cyclohexen-1-one], the saturation by substrate entry in data set [2] is on record as “no saturation”.

On to `CC1=CC(=O)CCC1` [3-methyl-2-cyclohexenone, 3-Methyl-2-cyclohexenone], for which the saturation by substrate entry in data set [2] was “no saturation”.

Turning to `O=C(O)CCCCCO` [6-hydroxyhexanoic acid], in data set [3], the kcat turned out to be 2.91 ± 0.19 s⁻¹ and the kcat/Km amounted to 41.58 ± 2.77 M⁻¹ s⁻¹.

In the case of `O=CCCCCC=O` [adipaldehyde], in data set [4] (setting [9]), the Km turned out to be 6.89 ± 1.38 mM, the kcat is 3.67 ± 0.31 s⁻¹ and the catalytic efficiency (kcat/Km) entry is given as “(5.33 ± 0.45) × ×10^2 M^−1 · s^−1”.

For `O=C(O)CCCCC(=O)O` [adipic acid], in data set [5], the kcat was 2.73 ± 0.20 s⁻¹ and the kcat/Km was determined as 25.2 ± 1.83 M⁻¹ s⁻¹. Moreover, in data set [6], the Km was 87.5 ± 16.2 mM and the kcat stood at 2.40 ± 0.26 s⁻¹.

As to `CCCC=O` [butyraldehyde], in data set [4] (butyraldehyde, cofactor NADH), the Km is 14.3 ± 0.88 mM, the kcat stood at 25.77 ± 0.88 s⁻¹ and the catalytic efficiency (kcat/Km) result is reported as “(1.80 ± 0.06) × ×10^3 M^−1 · s^−1”. In data set [4] (butyraldehyde, cofactor NADPH), the Km worked out at 1.53 ± 0.39 mM, the kcat came out at 1.28 ± 0.09 s⁻¹ and the kcat/Km result was “(8.37 ± 0.59) × ×10^2 M^−1 · s^−1”.

As for “RHA1_ro05279: aldehyde reductase (AR) from Rhodococcus jostii”, the “Activity [U/mg protein] Adipaldehyde” value in data set [7] (1.8% DMSO) is 0.721 ± 0.026 U/mg protein. Moreover, the “Activity [U/mg protein] Butyraldehyde” value in data set [7] amounted to 0.905 ± 0.834 U/mg protein.

Regarding “Rsp3534: aminotransferase (AT) from Rhodobacter sphaeroides”, the “Adipaldehyde 10 mM U/mg” value in data set [8] was determined as 0.034 ± 0.005 U/mg.
